Measured values published in ChEMBL document CHEMBL1201862, “PubChem BioAssay data set” (2004).
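Dose response: 5 concentrations. Exposure: 48 h. Format: 96-well plates. Endpoint: linear interpolation; highest concentration if not reached. At the GI50, growth is halved.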 Active and inactive are the calls of the source. No stated cut-off is given here; in the data, active = GI50 up to about 1.1 µM and inactive = higher.

Assays:
Test in all cases: inhibition of tumour cell growth, NCI panel, 48 h
[1] = test system: HOP-18
[2] = test system: HT-29
[3] = test system: HCT-15
[4] = test system: RXF 393
[5] = test system: Malme-3M
[6] = test system: ACHN
[7] = test system: SF-295
[8] = test system: K562
[9] = test system: M19-MEL
[10] = test system: IGROV-1
[11] = test system: HCT-116
[12] = test system: SK-OV-3
[13] = test system: RPMI-8226
[14] = test system: CCRF-CEM
[15] = test system: OVCAR-4
[16] = test system: SNB-19
[17] = test system: SNB-75
[18] = test system: HL-60
[19] = test system: TK-10
[20] = test system: HCC 2998
[21] = test system: HOP-92
[22] = test system: LXFL 529
[23] = test system: OVCAR-3
[24] = test system: A498
[25] = test system: U-251
[26] = test system: DMS-114
[27] = test system: UACC-257
[28] = test system: NCI-H23
[29] = test system: SF-268
[30] = test system: UACC-62
[31] = test system: DLD-1
[32] = test system: M14
[33] = test system: OVCAR-5
[34] = test system: LOX IMVI
[35] = test system: SN12C
[36] = test system: EKVX
[37] = test system: NCI-H226
[38] = test system: A549
[39] = test system: HOP-62
[40] = test system: MOLT-4
[41] = test system: SK-MEL-5
[42] = test system: OVCAR-8
[43] = test system: XF498
[44] = test system: SW-620
[45] = test system: UO-31
[46] = test system: KM-20L2
[47] = test system: SNB-78
[48] = test system: SF-539
[49] = test system: NCI-H460
[50] = test system: SK-MEL-2
[51] = test system: KM12
[52] = test system: COLO 205
[53] = test system: NCI-H522
[54] = test system: 786-0
[55] = test system: SK-MEL-28

O=C(OCCCl)C1OC(n2cc(F)c(=O)[nH]c2=O)CC1O (stereo not given)
GI50 [1]: > 100 µM (inactive)
GI50 [2]: > 100 µM (inactive)
GI50 [3]: > 100 µM
GI50 [4]: > 100 µM (inactive)
GI50 [5]: > 100 µM (inactive)
GI50 [6]: > 100 µM (inactive)
GI50 [7]: > 100 µM (inactive)
GI50 [8]: > 100 µM (inactive)
GI50 [9]: > 100 µM (inactive)
GI50 [10]: > 100 µM (inactive)
GI50 [11]: > 100 µM (inactive)
GI50 [12]: > 100 µM (inactive)
GI50 [13]: > 100 µM (inactive)
GI50 [14]: > 100 µM (inactive)
GI50 [15]: > 100 µM (inactive)
GI50 [16]: > 100 µM (inactive)
GI50 [17]: > 100 µM (inactive)
GI50 [18]: > 100 µM (inactive)
GI50 [19]: > 100 µM (inactive)
GI50 [20]: 27.7 µM (inactive)
GI50 [21]: 57.8 µM (inactive)
GI50 [22]: > 100 µM (inactive)
GI50 [23]: > 100 µM (inactive)
GI50 [24]: > 100 µM (inactive)
GI50 [25]: > 100 µM (inactive)
GI50 [26]: > 100 µM (inactive)
GI50 [27]: > 100 µM (inactive)
GI50 [28]: > 100 µM (inactive)
GI50 [29]: > 100 µM (inactive)
GI50 [30]: > 100 µM (inactive)
GI50 [31]: > 100 µM (inactive)
GI50 [32]: > 100 µM (inactive)
GI50 [33]: > 100 µM (inactive)
GI50 [34]: > 100 µM (inactive)
GI50 [35]: > 100 µM (inactive)
GI50 [36]: > 100 µM (inactive)
GI50 [37]: > 100 µM (inactive)
GI50 [38]: > 100 µM (inactive)
GI50 [39]: > 100 µM (inactive)
GI50 [40]: > 100 µM (inactive)
GI50 [41]: > 100 µM (inactive)
GI50 [42]: > 100 µM (inactive)
GI50 [43]: > 100 µM (inactive)
GI50 [44]: > 100 µM (inactive)
GI50 [45]: > 100 µM (inactive)
GI50 [46]: > 100 µM (inactive)
GI50 [47]: > 100 µM (inactive)
GI50 [48]: > 100 µM (inactive)
GI50 [49]: 92 µM (inactive)
GI50 [50]: > 100 µM (inactive)
GI50 [51]: > 100 µM (inactive)
GI50 [52]: > 100 µM (inactive)
GI50 [53]: > 100 µM (inactive)
GI50 [54]: > 100 µM (inactive)
GI50 [55]: > 100 µM (inactive)
